In patent publication US11266655B2, “Methods and compositions for treating urea cycle disorders” (Camp4 Therapeutics Corporation, priority 2019, dated 2022):
Structures can show the parent of a compound that is named as a salt. Where two headings read alike, the source gives them in different places.

How the values were obtained:
[1] = tested on: NAGS; assay type: cell-based, human
[2] = tested on: SLC25A15; assay: RNA-seq of compound-treated primary human hepatocytes, SLC25A15 expression; assay type: cell-based; conditions: for Fold change (Log 2) vs untreated, SLC25A15 expression: RNA-seq (Table 8); for Increase in SLC25A15 gene expression (qualitative): Example 11, relative mRNA vs DMSO
[3] = tested on: urea cycle genes; assay: RNA-seq of primary human hepatocytes, compounds that modulate multiple urea cycle-related genes; assay type: cell-based; conditions: primary human hepatocytes, RNA-seq; for Up-regulated Genes: urea cycle-related genes significantly increased (Table 10)
Method: To identify small molecules that modulate urea cycle enzymes, primary human hepatocytes were prepared as a monoculture, and at least one small molecule compound was applied to the cells.
RNA-seq was performed to determine the effects of the compounds on the expression of urea cycle enzymes in hepatocytes. Fold change was calculated by dividing the level of expression in the cell system that had been perturbed by the level of expression in an unperturbed system. Changes in expression having a p-value ≤0.05 were considered significant.
Significance was defined as an FPKM ≥1, a log 2 (fold change) ≥0.5, and a q-value of ≤0.05 for selected gene target.

[4] = tested on: ARG1; assay: RNA-seq of compound-treated primary human hepatocytes, ARG1 expression; assay type: cell-based; conditions: for Relative ARGI level vs Untreated (±Standard Deviation) / Fold change (Log 2) vs untreated, ARG1 expression: primary human hepatocytes; for Relative ARGI level vs Untreated (±Standard Deviation): triplicate (Table 17, FIG. 9); for Fold change (Log 2) vs untreated, ARG1 expression: RNA-seq (Table 7)
[5] = tested on: ASS1; assay: RNA-seq of compound-treated primary human hepatocytes, ASS1 expression; assay type: cell-based; conditions: for Fold change (Log 2) vs untreated, ASS1 expression: RNA-seq (Table 4)
[6] = primary human hepatocytes, RNA-seq (Table 6)
[7] = 10 μM, primary human hepatocytes, triplicate (Table 24, FIG. 16A-B)
[8] = 0.3 μM, primary human hepatocytes, triplicate (Table 21, FIG. 13)
[9] = 3 μM, primary human hepatocytes, triplicate (Table 21, FIG. 13)
[10] = 10 μM, primary human hepatocytes, triplicate (Table 15, FIG. 7)
[11] = 3 μM, primary human hepatocytes, triplicate (Table 15, FIG. 7)

## CCCC(=O)O[C@@H]1[C@@H](C)[C@@]2(O)[C@@H](C=C(CO)C[C@]3(O)C(=O)C(C)=C[C@@H]23)[C@@H]2C(C)(C)[C@]12OC(=O)CCC [Phorbol 12, 13-dibutyrate]
[1]; [6]
  Fold change (Log 2) vs untreated, NAGS expression: 0.62 Log 2

## COc1nc(N)nc2c1ncn2[C@@H]1O[C@H](COP(=O)(N[C@@H](C)C(=O)OCC(C)(C)C)Oc2cccc3ccccc23)[C@@H](O)[C@@]1(C)O (some centres unmarked) [bms-986094 (inx-189)]
[2]; primary human hepatocytes
  Fold change (Log 2) vs untreated, SLC25A15 expression: 1.18 Log 2

## COc1cc(Nc2ncc(F)c(Nc3ccc4c(n3)N(COP(=O)(O)O)C(=O)C(C)(C)O4)n2)cc(OC)c1OC [R788 (fostamatinib disodium hexahydrate), fostamatinib disodium hexahydrate]
[3]
  number of urea cycle genes whose expression was significantly up-regulated: three
  Up-regulated Genes: CPS1, ARG1, SLC25A15

## O=C(NOCCO)c1cc(CN2OCCCC2=O)c(F)c(F)c1Nc1ccc(I)cc1F [RO4987655)]
[2]; [7]
  Relative SLC25A15 level vs Untreated (±Standard Deviation): 1.31 ± 0.13

## C[C@]12C=CC(=O)C=C1CC[C@@H]1[C@@H]2C(=O)C[C@@]2(C)[C@H]1CC[C@]2(O)C(=O)CO [prednisone]
[1]; [6]
  Fold change (Log 2) vs untreated, NAGS expression: 1 Log 2
[3]
  number of urea cycle genes whose expression was significantly up-regulated: three
  Up-regulated Genes: CPS1, NAGS, ARG1

## CCn1c(=O)c(-c2cc[nH]n2)cc2c(C)nc(N)nc21 [Voxtalisib]
[4]; 3 μM
  Relative ARGI level vs Untreated (±Standard Deviation): 1.34 ± 0.16
[4]; 10 μM
  Relative ARGI level vs Untreated (±Standard Deviation): 1.48 ± 0.18
[1]; [8]
  Relative NAGS level vs Untreated (±Standard Deviation): 1.35 ± 0.04
[1]; [9]
  Relative NAGS level vs Untreated (±Standard Deviation): 1.33 ± 0.15
[1]; 10 μM, primary human hepatocytes, triplicate (Table 21, FIG. 13)
  Relative NAGS level vs Untreated (±Standard Deviation): 1.78 ± 0.04
[5]; [10]
  Relative ASS1 level vs Untreated (±Standard Deviation): 1.43 ± 0.13

## CN(C)[C@@H]1C(O)=C(C(N)=O)C(=O)[C@@]2(O)C(O)=C3C(=O)c4c(O)c(NC(=O)CN5CCCC5)cc(F)c4C[C@H]3C[C@@H]12 [TP-434 (Eravacycline), Eravacycline]
[1]; [6]
  Fold change (Log 2) vs untreated, NAGS expression: 1.5 Log 2
[5]; primary human hepatocytes
  Fold change (Log 2) vs untreated, ASS1 expression: 0.76 Log 2

## O=C(NCCCn1ccnc1)c1cc(-c2ccco2)on1 [SKL2001]
[1]
  Fold change (Log 2) vs untreated, NAGS expression: 0.95 Log 2

## NC(=O)c1ccc(I)c([N+](=O)[O-])c1 [Iniparib (BSI-]
[1]
  Relative NAGS level vs Untreated (±Standard Deviation): 1.35 ± 0.27

## O=C(N[C@H]1CN2CCC1CC2)c1cc2cccc(Cl)c2s1 [EVP-6124 (hydrochloride) (encenicline), encenicline]
[1]; [6]
  Fold change (Log 2) vs untreated, NAGS expression: 0.75 Log 2

## CCn1c(=O)c(-c2ccc(-c3cncs3)cc2Cl)cc2cnc(Nc3ccc(N4CCN(C)CC4)cc3)nc21 [FRAX597]
[3]
  number of urea cycle genes whose expression was significantly up-regulated: five
  Up-regulated Genes: CPS1, ASS1, OTC, ARG1, SLC25A15

## CS[C@H]1SC[C@H]2C(=O)N(C)[C@@H](C(C)C)C(=O)OC[C@@H](NC(=O)c3cnc4ccccc4n3)C(=O)N[C@@H](C)C(=O)N(C)[C@@H]1C(=O)N(C)[C@@H](C(C)C)C(=O)OC[C@@H](NC(=O)c1cnc3ccccc3n1)C(=O)N[C@@H](C)C(=O)N2C [Echinomycin]
[2]
  Increase in SLC25A15 gene expression (qualitative): greatest increase
[3]
  number of urea cycle genes whose expression was significantly up-regulated: six

## [H]/N=C(/N)N/C(=N/[H])NCCc1ccccc1 [Phenformin]
[1]
  Fold change (Log 2) vs untreated, NAGS expression: 1.38 Log 2

## N#CC(c1ccnc(OCc2ccc(CN3CCOCC3)cc2)n1)c1nc2ccccc2s1 (centres unmarked) [AS602801]
[2]; 10 µM
  Relative SLC25A15 level vs Untreated (±Standard Deviation): 2.22 ± 0.24

## Cc1cc(C)c(/C=C2\C(=O)Nc3ccccc32)[nH]1 [Semaxanib]
[1]; [6]
  Fold change (Log 2) vs untreated, NAGS expression: 2 Log 2

## TNF-a
[4]
  Fold change (Log 2) vs untreated, ARG1 expression: 1.87 Log 2

## O=C1NC(=O)/C(=C/c2cccc(C(F)(F)F)c2)S1 [SMI-4a]
[1]
  Fold change (Log 2) vs untreated, NAGS expression: 1.25 Log 2
[5]; primary human hepatocytes
  Fold change (Log 2) vs untreated, ASS1 expression: 0.69 Log 2

## C=C1/C(=C\C=C2/CCC[C@]3(C)[C@@H]([C@H](C)CCCC(C)(C)O)CC[C@@H]23)C[C@@H](O)C[C@@H]1O [Calcitriol]
[1]; [6]
  Fold change (Log 2) vs untreated, NAGS expression: 1.2 Log 2

## CC(=O)CC(c1ccccc1)c1c(O)c2ccccc2oc1=O (centres unmarked) [wafarin]
[4]; 10 μM
  Relative ARGI level vs Untreated (±Standard Deviation): 1.33 ± 0.62

## CCc1ccc(CCOc2ccc(CC3SC(=O)NC3=O)cc2)nc1 (centres unmarked) [Pioglitazone HCl]
[1]; [8]
  Relative NAGS level vs Untreated (±Standard Deviation): 1.33 ± 0.02

## Cc1ccc(F)c(NC(=O)Nc2ccc(-c3cccc4[nH]nc(N)c34)cc2)c1 [Linifanib]
[1]; [9]
  Relative NAGS level vs Untreated (±Standard Deviation): 1.32 ± 0.04

## C[C@]12C[C@H](O)[C@H]3[C@@H](CCC4=CC(=O)CC[C@@]43C)[C@@H]1CC[C@@H]2C(=O)CO [Corticosterone]
[2]; primary human hepatocytes
  Fold change (Log 2) vs untreated, SLC25A15 expression: 0.96 Log 2

## O=C1CCC(N2C(=O)c3ccccc3C2=O)C(=O)N1 (centres unmarked) [Thalidomide]
[1]; [6]
  Fold change (Log 2) vs untreated, NAGS expression: 1.1 Log 2
[3]
  number of urea cycle genes whose expression was significantly up-regulated: five
  Up-regulated Genes: NAGS, CPS1, ALS, OTC, ARG1

## CCN(CC)CCNC(=O)c1c(C)[nH]c(/C=C2\C(=O)Nc3ccc(F)cc32)c1C [Sunitinib]
[4]; 10 μM
  Relative ARGI level vs Untreated (±Standard Deviation): 1.36 ± 0.01
[2]; 0.3 μM, primary human hepatocytes, triplicate (Table 24, FIG. 16A-B)
  Relative SLC25A15 level vs Untreated (±Standard Deviation): 1.32 ± 0.08
[2]; 3 μM, primary human hepatocytes, triplicate (Table 24, FIG. 16A-B)
  Relative SLC25A15 level vs Untreated (±Standard Deviation): 2.36 ± 0.20
[2]; [7]
  Relative SLC25A15 level vs Untreated (±Standard Deviation): 2.43 ± 0.29
[1]; [8]
  Relative NAGS level vs Untreated (±Standard Deviation): 1.40 ± 0.03
[1]; 1 μM, primary human hepatocytes, triplicate (Table 21, FIG. 13)
  Relative NAGS level vs Untreated (±Standard Deviation): 1.63 ± 0.42
[5]; [11]
  Relative ASS1 level vs Untreated (±Standard Deviation): 2.25 ± 0.45
[5]; [10]
  Relative ASS1 level vs Untreated (±Standard Deviation): 2.70 ± 0.37

## CN1CCN(CCCN2c3ccccc3Sc3ccc(C(F)(F)F)cc32)CC1 [TFP, Trifluoperazine]
[1]; [6]
  Fold change (Log 2) vs untreated, NAGS expression: 0.58 Log 2

## N#CCNC(=O)c1ccc(-c2ccnc(Nc3ccc(N4CCOCC4)cc3)n2)cc1 [Momelotinib]
[3]
  number of urea cycle genes whose expression was significantly up-regulated: three
  Up-regulated Genes: CPS1, OTC, ARG1

## CC(C)c1cc(CNc2nc(Nc3cc(C4CC4)[nH]n3)cc(N3CCN(C)CC3)n2)on1 [XL228]
[4]; 0.3 μM
  Relative ARGI level vs Untreated (±Standard Deviation): 1.47 ± 0.11
[4]; 1 μM
  Relative ARGI level vs Untreated (±Standard Deviation): 2.05 ± 0.11
[4]; 3 μM
  Relative ARGI level vs Untreated (±Standard Deviation): 2.15 ± 0.04
[4]; Example 11, relative mRNA vs DMSO
  increase in ARG1 gene expression (Tables 17, 18, FIG. 9, 10): greatest increase
[2]
  Increase in SLC25A15 gene expression (qualitative): greatest increase
[5]; 1 μM, primary human hepatocytes, triplicate (Table 15, FIG. 7)
  Relative ASS1 level vs Untreated (±Standard Deviation): 1.83 ± 0.02
[5]; [11]
  Relative ASS1 level vs Untreated (±Standard Deviation): 1.45 ± 0.10
[5]; [10]
  Relative ASS1 level vs Untreated (±Standard Deviation): 2.05 ± 0.00

## N#CC(c1ccnc(OCc2ccc(CN3CCOCC3)cc2)n1)c1nc2ccccc2s1 (centres unmarked) [Bentamapimod]
[5]; 10 µM
  Relative ASS1 level vs Untreated (±Standard Deviation): 1.90 ± 0.22

B1: Wnt3 a (protein, UniProt P56704 19-352, looked up)
Protein Wnt-3a: SYPIWWSLAVGPQYSSLGSQPILCASIPGLVPKQLRFCRNYVEIMPSVAEGIKIGIQECQHQFRGRRWNCTTVHDSLAIFGPVLDKATRESAFVHAIASAGVAFAVTRSCAEGTAAICGCSSRHQGSPGKGWKWGGCSEDIEFGGMVSREFADARENRPDARSAMNRHNNEAGRQAIASHMHLKCKCHGLSGSCEVKTCWWSQPDFRAIGDFLKDKYDSASEMVVEKHRESRGWVETLRPRYTYFKVPTERDLVYYEASPNFCEPNPETGSFGTRDRTCNVSSHGIDGCDLLCCGRGHNARAERRREKCRCVFHWCCYVSCQECTRVYDVHTCK
[2]; primary human hepatocytes
  Fold change (Log 2) vs untreated, SLC25A15 expression: 0.7 Log 2

B2: GDF 10 (BMP3b) (protein, UniProt P55107 369-478, looked up)
Growth/differentiation factor …: QWDEPRVCSRRYLKVDFADIGWNEWIISPKSFDAYYCAGACEFPMPKIVRPSNHATIQSIVRAVGIIPGIPEPCCVPDKMNSLGVLFLDENRNVVLKVYPNMSVDTCACR
[4]
  Fold change (Log 2) vs untreated, ARG1 expression: 0.97 Log 2
